The text below walks through data of PubChem BioAssay AID256 (DTP/NCI, 2004).

The test system of the assay is CD2F1 mice, L1210 leukemia ip, survival T/C. The experiment in a line: NCI In Vivo Anticancer Drug Screen. Data for tumor model L1210 Leukemia (intraperitoneal) in CD2F1 (CDF1) mice. Conditions: higher = longer survival. In outline: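 Each value reflects a quotient of treated over vehicle control outcomes in mice with a transplanted tumor.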
Where [1] appears, read: endpoint: mean survival time, dose: 100.0 mg/kg/injection, schedule: Q04DX003 (ip), vehicle: saline with Tween-80.
[2] abbreviates: endpoint: mean survival time, dose: 200.0 mg/kg/injection, schedule: Q04DX003 (ip), vehicle: saline with Tween-80.
The mark [3] stands for this setting: endpoint: mean survival time, dose: 400.0 mg/kg/injection, schedule: Q04DX003 (ip), vehicle: saline with Tween-80.
The mark [4] stands for this setting: endpoint: mean survival time, dose: 50.0 mg/kg/injection, schedule: Q04DX002 (ip), vehicle: saline with Tween-80.
[5] abbreviates: endpoint: mean survival time, dose: 100.0 mg/kg/injection, schedule: Q04DX002 (ip), vehicle: saline with Tween-80.
[6] abbreviates: endpoint: mean survival time, dose: 200.0 mg/kg/injection, schedule: Q04DX002 (ip), vehicle: saline with Tween-80.
Where [7] appears, read: endpoint: mean survival time, dose: 50.0 mg/kg/injection, schedule: Q04DX003 (ip), vehicle: saline with Tween-80.
[8] abbreviates: endpoint: mean survival time, dose: 100.0 mg/kg/injection, schedule: Q01DX001 (ip), vehicle: saline.
Where [9] appears, read: endpoint: mean survival time, dose: 200.0 mg/kg/injection, schedule: Q01DX001 (ip), vehicle: saline.
[10] abbreviates: endpoint: mean survival time, dose: 400.0 mg/kg/injection, schedule: Q01DX001 (ip), vehicle: saline.
The mark [11] stands for this setting: endpoint: mean survival time, dose: 100.0 mg/kg/injection, schedule: Q01DX009 (ip), vehicle: saline with Tween-80.
The mark [12] stands for this setting: endpoint: mean survival time, dose: 200.0 mg/kg/injection, schedule: Q01DX009 (ip), vehicle: saline with Tween-80.
The mark [13] stands for this setting: endpoint: mean survival time, dose: 50.0 mg/kg/injection, schedule: Q01DX009 (ip), vehicle: saline with Tween-80.
Setting [14] is: endpoint: mean survival time, dose: 75.0 mg/kg/injection, schedule: Q01DX001 (ip), vehicle: steriod suspending solution.
Where [15] appears, read: endpoint: mean survival time, dose: 150.0 mg/kg/injection, schedule: Q01DX001 (ip), vehicle: steriod suspending solution.
Setting [16] is: endpoint: mean survival time, dose: 300.0 mg/kg/injection, schedule: Q01DX001 (ip), vehicle: steriod suspending solution.

Where “and” joins values, the source holds several entries; their conditions need not be identical. Equal entries are not always repeated. Toxic doses and inconclusive results are not listed.

As to `FC(F)(F)C1(F)N(Cc2ccccc2)N=NC1(F)F` (centres undefined), the T/C is 96 % of control (endpoint: mean survival time, dose: 75.0 mg/kg/injection, schedule: Q01DX001 (ip), vehicle: saline); 98 % of control (endpoint: mean survival time, dose: 150.0 mg/kg/injection, schedule: Q01DX001 (ip), vehicle: saline); 96 % of control (endpoint: mean survival time, dose: 300.0 mg/kg/injection, schedule: Q01DX001 (ip), vehicle: saline).

On to `N=C(N)c1cn(C2OC(CO)C(O)C2O)c2ncnc(N)c12` (centres undefined), for which the T/C is 123 % of control (endpoint: mean survival time, dose: 0.63 mg/kg/injection, schedule: Q01DX009 (ip), vehicle: saline) and 124 % of control (endpoint: mean survival time, dose: 2.5 mg/kg/injection, schedule: Q01DX009 (ip), vehicle: saline).

For `c1ccc(-c2cc(-c3ccccc3)[o+]c(-c3ccccc3)c2)cc1`, the T/C runs as follows: (endpoint: mean survival time, dose: 3.13 mg/kg/injection, schedule: Q01DX009 (ip), vehicle: saline with Tween-80) 100 % of control; (endpoint: mean survival time, dose: 3.13 mg/kg/injection, schedule: Q04DX003 (ip), vehicle: saline) 101 % of control; (endpoint: mean survival time, dose: 6.25 mg/kg/injection, schedule: Q01DX009 (ip), vehicle: saline with Tween-80) 100 % of control; (endpoint: mean survival time, dose: 6.25 mg/kg/injection, schedule: Q04DX003 (ip), vehicle: saline) 98 % of control; (endpoint: mean survival time, dose: 12.5 mg/kg/injection, schedule: Q01DX009 (ip), vehicle: saline with Tween-80) 97 % of control; (endpoint: mean survival time, dose: 12.5 mg/kg/injection, schedule: Q04DX003 (ip), vehicle: saline) 104 % of control. For the same compound, under setting [1], the T/C is 95 % of control.

Regarding `CCS(=O)(=O)Nc1ccc(Nc2c3ccccc3nc3ccccc23)c(OC)c1`, the T/C (endpoint: mean survival time, dose: 5.0 mg/kg/injection, schedule: Q01DX009 (ip), vehicle: saline) is 156 % of control.

On to `C1=NCCN1`, for which the T/C by setting is: (endpoint: mean survival time, dose: 100.0 mg/kg/injection, schedule: Q01DX009 (ip), vehicle: saline) 106 % of control; under setting [1], 97 % of control; (endpoint: mean survival time, dose: 200.0 mg/kg/injection, schedule: Q01DX009 (ip), vehicle: saline) 89 % of control; under setting [2], 97 % of control; under setting [3], 90 % of control.

In the case of `CN1CCN(c2ccccc2N)CC1`, the T/C (endpoint: mean survival time, dose: 5.0 mg/kg/injection, schedule: Q01DX009 (ip), vehicle: saline with Tween-80) was 108 % of control; the T/C (endpoint: mean survival time, dose: 10.0 mg/kg/injection, schedule: Q01DX009 (ip), vehicle: saline with Tween-80) is 108 % of control; the T/C (endpoint: mean survival time, dose: 20.0 mg/kg/injection, schedule: Q01DX009 (ip), vehicle: saline with Tween-80) was 102 % of control.

For the compound `Nc1cccc(OCC(O)CN2CCN(c3ccccc3)CC2)c1` (centres undefined), the T/C is 93 % of control under setting [4]; 89 % of control and 94 % of control under setting [5]; 112 % of control under setting [6].

`Cc1ccc(S(=O)(=O)Nc2ccccc2N(CCN(CCOS(=O)(=O)c2ccc(C)cc2)S(=O)(=O)c2ccc(C)cc2)S(=O)(=O)c2ccc(C)cc2)cc1`: the T/C is 95 % of control (endpoint: mean survival time, dose: 25.0 mg/kg/injection, schedule: Q04DX003 (ip), vehicle: saline with Tween-80); 100 % of control under setting [7]; 91 % of control under setting [1]; 95 % of control under setting [2].

For the compound `O=C1CSC(=O)N1` (tested in a mixture with another compound), the T/C runs as follows: under setting [8], 96 % of control; under setting [9], 96 % of control; under setting [10], 107 % of control.

In the case of `O=S(O)C(=Nc1ccccc1)Nc1ccccc1`, the T/C was 94 % of control under setting [11] and 106 % of control under setting [12].

Take `C=CCNC(=O)/C=C/C(=O)NCC=C`: the T/C reads like this: (endpoint: mean survival time, dose: 25.0 mg/kg/injection, schedule: Q01DX009 (ip), vehicle: saline with Tween-80) 97 % of control; under setting [13], 97 % of control; under setting [11], 101 % of control; under setting [1], 97 % of control.

`NC(=O)C1(C(N)=O)CCCCC1`: the T/C was 100 % of control under setting [4], 112 % of control under setting [5] and 100 % of control under setting [6].

On to `COc1cc2c(c(OC)c1OC)-c1cc(I)c(O)cc1[C@@H](NC(C)=O)CC2`, for which the T/C under setting [11] is 98 % of control.

In the case of `CC1=C(Br)C(=O)C(C(O)(C(F)(F)F)C(F)(F)F)C(C)(C)C1` (centres undefined), the T/C under setting [1] was 96 % of control and the T/C under setting [2] is 96 % of control.

As to `O=C(C[n+]1ccccc1/C=N/O)c1ccccc1`, the T/C under setting [7] is 91 % of control.

As to `CCC(=O)Nc1cc([N+](=O)[O-])cc([N+](=O)[O-])c1`, the T/C runs as follows: under setting [5], 105 % of control; under setting [6], 100 % of control.

`NCC1=NCCN1`: the T/C (endpoint: mean survival time, dose: 100.0 mg/kg/injection, schedule: Q04DX002 (ip), vehicle: saline) is 124 % of control; the T/C (endpoint: mean survival time, dose: 200.0 mg/kg/injection, schedule: Q04DX002 (ip), vehicle: saline) was 95 % of control; the T/C (endpoint: mean survival time, dose: 400.0 mg/kg/injection, schedule: Q04DX002 (ip), vehicle: saline) is 102 % of control.

As to `CO[C@H]1C[C@H](O[C@H]2CC[C@]3(C=O)[C@H]4CC[C@]5(C)[C@@H](C6=CC(=O)OC6)CC[C@]5(O)[C@@H]4CC[C@]3(O)C2)O[C@H](C)[C@H]1O[C@@H]1O[C@H](CO)[C@@H](O)[C@H](O)[C@H]1O`, the T/C was 102 % of control (endpoint: mean survival time, dose: 0.25 mg/kg/injection, schedule: Q01DX009 (ip), vehicle: saline); 96 % of control (endpoint: mean survival time, dose: 0.5 mg/kg/injection, schedule: Q01DX009 (ip), vehicle: saline); 110 % of control (endpoint: mean survival time, dose: 1.0 mg/kg/injection, schedule: Q01DX009 (ip), vehicle: saline).

For `CC(=O)Oc1cccc(/C=C/[N+](=O)[O-])c1`, the T/C reads like this: under setting [14], 97 % of control; under setting [15], 97 % of control; under setting [16], 110 % of control.

With `CCOC(=O)/C(C#N)=N/Nc1ccc(Cl)cc1`, the T/C reads like this: under setting [5], 108 % of control; under setting [6], 100 % of control; (endpoint: mean survival time, dose: 400.0 mg/kg/injection, schedule: Q04DX002 (ip), vehicle: saline with Tween-80) 92 % of control.

Take `O=[N+]([O-])c1ccc(N=C(Cl)N2CCCCC2)cc1`: the T/C under setting [8] was 109 % of control, the T/C under setting [9] was 103 % of control and the T/C under setting [10] was 107 % of control.

As for `CC12CCC3C(CC=C4CC(SC(=N)N)CCC43C)C1CCC2=O` (centres undefined), the T/C under setting [14] is 90 % of control, the T/C under setting [15] was 98 % of control and the T/C under setting [16] is 98 % of control.

Consider `CCCCCCCCCCCCCC(=O)O.[Pb]`, for which the T/C reads like this: (endpoint: mean survival time, dose: 75.0 mg/kg/injection, schedule: Q01DX001 (ip), vehicle: other) 98 % of control; (endpoint: mean survival time, dose: 150.0 mg/kg/injection, schedule: Q01DX001 (ip), vehicle: other) 101 % of control; (endpoint: mean survival time, dose: 300.0 mg/kg/injection, schedule: Q01DX001 (ip), vehicle: other) 101 % of control.

As to `Cc1ccc(-c2cc(Cl)c3cc(S(=O)(=O)F)ccc3n2)cc1`, the T/C under setting [11] was 102 % of control; the T/C under setting [1] is 104 % of control; the T/C under setting [12] is 98 % of control; the T/C under setting [2] was 102 % of control; the T/C (endpoint: mean survival time, dose: 400.0 mg/kg/injection, schedule: Q01DX009 (ip), vehicle: saline with Tween-80) is 90 % of control; the T/C under setting [3] was 107 % of control.

Turning to `c1ccc2c(c1)CC1Sc3ccccc3N=C21` (centres undefined), the T/C is 91 % of control under setting [13], 91 % of control under setting [11] and 94 % of control under setting [12].

Turning to `CN(C)c1ccc(Nc2c3ccccc3nc3ccccc23)cc1`, the T/C was 154 % of control (endpoint: mean survival time, dose: 120.0 mg/kg/injection, schedule: Q03HX040 (oral), vehicle: saline); 124 % of control (endpoint: mean survival time, dose: 150.0 mg/kg/injection, schedule: Q03HX008 (oral), vehicle: saline); 152 % of control (endpoint: mean survival time, dose: 300.0 mg/kg/injection, schedule: Q03HX016 (oral), vehicle: saline); 111 % of control (endpoint: median survival time, dose: 22.5 mg/kg/injection, schedule: Q01DX009 (ip), vehicle: saline); 161 % of control and 185 % of control (endpoint: median survival time, dose: 45.0 mg/kg/injection, schedule: Q01DX009 (ip), vehicle: saline); 188 % of control and 207 % of control (endpoint: median survival time, dose: 90.0 mg/kg/injection, schedule: Q01DX009 (ip), vehicle: saline).

In the case of `O=C(CCl)n1nc(Cl)c2ccc([N+](=O)[O-])cc21`, the T/C was 98 % of control under setting [8] and 98 % of control under setting [9].
